Laboratory results published in ChEMBL document CHEMBL1134266, “Design and pharmacology of quinuclidine derivatives as M2-selective muscarinic receptor ligands” (Bioorg Med Chem Lett, 2001).

Tests used:
Format in all cases: cell-based
[1] = molecular target: T1, Muscarinic acetylcholine receptor M5 (Homo sapiens, UniProt P08912); experiment: Affinity for Muscarinic acetylcholine receptor M5 expressed in CHO cells by [3H]NMS displacement.
T1 sequence (P08912 whole entry): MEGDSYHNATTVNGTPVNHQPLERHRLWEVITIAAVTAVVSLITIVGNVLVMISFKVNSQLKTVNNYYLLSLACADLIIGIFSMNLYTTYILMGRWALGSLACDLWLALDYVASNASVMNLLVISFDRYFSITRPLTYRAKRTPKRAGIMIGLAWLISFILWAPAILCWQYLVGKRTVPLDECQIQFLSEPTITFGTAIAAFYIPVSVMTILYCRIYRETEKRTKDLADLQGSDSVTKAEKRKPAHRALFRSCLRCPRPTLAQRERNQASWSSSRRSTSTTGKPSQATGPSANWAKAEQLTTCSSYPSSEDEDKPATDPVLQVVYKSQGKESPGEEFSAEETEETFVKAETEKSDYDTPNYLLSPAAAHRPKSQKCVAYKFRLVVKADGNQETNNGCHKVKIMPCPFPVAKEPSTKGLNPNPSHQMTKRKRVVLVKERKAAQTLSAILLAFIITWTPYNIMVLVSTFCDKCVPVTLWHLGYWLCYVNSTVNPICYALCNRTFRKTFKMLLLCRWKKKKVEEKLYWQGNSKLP

[2] = molecular target: T2, Muscarinic acetylcholine receptor M4 (Homo sapiens, UniProt P08173); experiment: Affinity for Muscarinic acetylcholine receptor M4 expressed in CHO cells by [3H]NMS displacement.
T2 sequence (P08173 whole entry): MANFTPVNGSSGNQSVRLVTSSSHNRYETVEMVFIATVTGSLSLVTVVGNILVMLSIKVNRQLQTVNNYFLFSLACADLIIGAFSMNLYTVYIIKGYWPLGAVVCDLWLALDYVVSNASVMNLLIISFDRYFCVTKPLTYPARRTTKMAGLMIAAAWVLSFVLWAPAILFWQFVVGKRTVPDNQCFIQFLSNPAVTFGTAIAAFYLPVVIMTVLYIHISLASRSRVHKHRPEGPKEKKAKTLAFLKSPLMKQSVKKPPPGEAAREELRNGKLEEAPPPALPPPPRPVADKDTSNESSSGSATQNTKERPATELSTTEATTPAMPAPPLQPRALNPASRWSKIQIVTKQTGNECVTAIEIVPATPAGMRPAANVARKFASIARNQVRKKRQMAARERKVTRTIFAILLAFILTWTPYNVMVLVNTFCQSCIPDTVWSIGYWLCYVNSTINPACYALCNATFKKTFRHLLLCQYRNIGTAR

[3] = molecular target: T3, Muscarinic acetylcholine receptor M1 (Homo sapiens, UniProt P11229); experiment: Affinity for Muscarinic acetylcholine receptor M1 expressed in CHO cells by [3H]NMS displacement.
T3 sequence (P11229 whole entry): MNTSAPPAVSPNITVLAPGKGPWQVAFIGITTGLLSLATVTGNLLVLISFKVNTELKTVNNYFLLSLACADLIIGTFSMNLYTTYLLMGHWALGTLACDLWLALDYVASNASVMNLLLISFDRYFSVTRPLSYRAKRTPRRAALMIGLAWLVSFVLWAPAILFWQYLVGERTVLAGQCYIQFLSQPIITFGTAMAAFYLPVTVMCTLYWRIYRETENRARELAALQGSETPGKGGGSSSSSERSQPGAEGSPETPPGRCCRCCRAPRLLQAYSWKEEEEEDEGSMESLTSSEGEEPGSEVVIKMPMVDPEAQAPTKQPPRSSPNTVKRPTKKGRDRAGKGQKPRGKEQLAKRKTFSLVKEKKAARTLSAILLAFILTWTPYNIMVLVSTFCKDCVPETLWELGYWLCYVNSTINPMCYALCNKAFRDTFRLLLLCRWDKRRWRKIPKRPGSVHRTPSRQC

[4] = molecular target: Muscarinic acetylcholine receptor M3 (Homo sapiens, UniProt P20309); experiment: Affinity for Muscarinic acetylcholine receptor M3 expressed in CHO cells by [3H]-NMS displacement.
[5] = molecular target: T4, Muscarinic acetylcholine receptor M2 (Homo sapiens, UniProt P08172); experiment: Affinity for Muscarinic acetylcholine receptor M2 expressed in CHO cells by [3H]NMS displacement.
T4 sequence (P08172 whole entry): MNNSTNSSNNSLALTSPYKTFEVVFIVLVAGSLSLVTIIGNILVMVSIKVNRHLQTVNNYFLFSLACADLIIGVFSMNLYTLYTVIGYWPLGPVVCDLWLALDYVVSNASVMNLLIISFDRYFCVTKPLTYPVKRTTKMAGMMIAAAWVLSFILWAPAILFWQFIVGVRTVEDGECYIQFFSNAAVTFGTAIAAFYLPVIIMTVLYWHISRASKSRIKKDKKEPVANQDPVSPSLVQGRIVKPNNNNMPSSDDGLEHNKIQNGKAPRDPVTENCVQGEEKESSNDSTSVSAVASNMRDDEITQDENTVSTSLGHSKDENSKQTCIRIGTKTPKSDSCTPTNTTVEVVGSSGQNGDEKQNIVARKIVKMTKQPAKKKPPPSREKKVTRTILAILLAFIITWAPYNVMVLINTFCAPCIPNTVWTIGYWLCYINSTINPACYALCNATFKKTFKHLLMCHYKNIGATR

Chain of Muscarinic acetylcholine receptor M3 (P20309 whole entry): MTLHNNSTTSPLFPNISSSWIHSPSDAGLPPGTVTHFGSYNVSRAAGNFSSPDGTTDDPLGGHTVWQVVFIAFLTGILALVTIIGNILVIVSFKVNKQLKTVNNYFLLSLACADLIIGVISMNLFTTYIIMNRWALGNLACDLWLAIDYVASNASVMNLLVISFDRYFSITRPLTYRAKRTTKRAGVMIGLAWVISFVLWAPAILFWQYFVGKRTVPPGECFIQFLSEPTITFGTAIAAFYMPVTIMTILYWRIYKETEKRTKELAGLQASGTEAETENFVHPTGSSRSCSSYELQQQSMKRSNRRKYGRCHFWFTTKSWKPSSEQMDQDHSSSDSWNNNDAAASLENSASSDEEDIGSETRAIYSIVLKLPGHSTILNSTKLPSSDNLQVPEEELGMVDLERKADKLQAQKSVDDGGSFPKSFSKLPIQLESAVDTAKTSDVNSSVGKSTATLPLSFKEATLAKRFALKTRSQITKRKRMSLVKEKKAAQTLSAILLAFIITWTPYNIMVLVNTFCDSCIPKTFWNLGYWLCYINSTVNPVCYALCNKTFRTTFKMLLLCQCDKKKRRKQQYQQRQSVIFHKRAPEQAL

CN(C)CCNC(=O)C1=C/C(=C\c2ccccn2)c2ccccc21
Ki [1]: 55 µM | Ki [2]: 33.9 µM | Ki [3]: 26.9 µM | Ki [4]: 61.7 µM | Ki [5]: 41.7 µM

CN1CCN(C(=O)C2=C/C(=C\c3ccncc3)c3ccccc32)CC1
Ki [1]: 55 µM | Ki [2]: 89.1 µM | Ki [3]: 29.5 µM | Ki [4]: 97.7 µM | Ki [5]: 38.9 µM

CN(C)CCC1=C/C(=C\c2ccccn2)c2ccccc21
Ki [1]: 19.1 µM | Ki [2]: 12 µM | Ki [3]: 9.55 µM | Ki [4]: 21.4 µM | Ki [5]: 12.6 µM

CC(C1=C(CCN(C)C)Cc2ccccc21)c1ccccn1 (stereo not drawn)
Ki [1]: 0.794 µM | Ki [2]: 0.407 µM | Ki [3]: 0.263 µM | Ki [4]: 0.191 µM | Ki [5]: 0.0447 µM

CC1OC(=O)[C@H]2C[C@H]3CCCC[C@@H]3[C@@H](/C=C/C3CCCC(C)N3C)[C@@H]12 (single isomer, unassigned) [HIMBACINE]
Ki [1]: 0.49 µM | Ki [3]: 0.107 µM | Ki [5]: 0.01 µM

CN(C)CCNC(=O)C1=C/C(=C\c2cccnc2)c2ccccc21
Ki [1]: 66.1 µM | Ki [2]: 21.4 µM | Ki [3]: 28.2 µM | Ki [4]: 40.7 µM | Ki [5]: 29.5 µM

CN(C)CCOC(=O)C1=C/C(=C\c2ccncc2)c2ccccc21
Ki [1]: 26.9 µM | Ki [2]: 14.8 µM | Ki [3]: 12 µM | Ki [4]: 15.1 µM | Ki [5]: 10.5 µM

CN(C)CCN(C)C(=O)C1=C/C(=C\c2ccccn2)c2ccccc21
Ki [1]: 52.5 µM | Ki [2]: 46.8 µM | Ki [3]: 21.9 µM | Ki [4]: 63.1 µM | Ki [5]: 9.12 µM

CN(C)CCOC(=O)C1=C/C(=C\c2ccccn2)c2ccccc21
Ki [1]: 17.8 µM | Ki [2]: 12.3 µM | Ki [3]: 7.08 µM | Ki [4]: 14.1 µM | Ki [5]: 12 µM

CN(C)CCN(C)C(=O)C1=C/C(=C\c2cccnc2)c2ccccc21
Ki [1]: 53.7 µM | Ki [2]: 55 µM | Ki [3]: 49 µM | Ki [4]: 72.4 µM | Ki [5]: 14.1 µM

CN(C)CCOC(=O)C1=C/C(=C\c2cccnc2)c2ccccc21
Ki [1]: 30.2 µM | Ki [2]: 12.6 µM | Ki [3]: 11.5 µM | Ki [4]: 10 µM | Ki [5]: 7.41 µM

CN(C)CCC1=C/C(=C\c2cccnc2)c2ccccc21
Ki [1]: 26.9 µM | Ki [2]: 22.4 µM | Ki [3]: 18.6 µM | Ki [4]: 27.5 µM | Ki [5]: 15.1 µM

CN(C)CCNC(=O)C1=C/C(=C\c2ccncc2)c2ccccc21
Ki [1]: 53.7 µM | Ki [2]: 24.5 µM | Ki [3]: 24 µM | Ki [4]: 45.7 µM | Ki [5]: 15.8 µM
